Like-named read-outs stand apart in the source and are kept apart here. Marks after values point to notes of the source that are not given here.
Columns and labels:
adjuvant arthritis = experiment: Anti-adjuvant-arthritic activity; assay type: in vivo, SD rats; settings: 10 mg/kg orally once a day for 14 days; volume of left hind limb (not injected); day of reading not given
Method: Anti-Adjuvant-Arthritic Activity
Male SD origin male-rats (6 weeks old, CLEA Japan, 1 group: n=7) were used. The adjuvant arthritis method was conducted according to the method of Newbould B. B. et. al., (Brit. J. Pharmacol. Chemother., vol. 21, p. 127, 1963). Complete Freund's adjuvant (a suspension of killed tubercule bacillus in liquid paraffin at a concentration of 0.5%, 0.05 mL) was injected into the right hind limb footpad intracutaneouly to induce multiple arthritis. Samples were administered orally (10 mg/kg, b.w.), once a day for 14 days from the day before the injection day 0 to day 13. Volume of the left hind limb (not injected) was determined by the foot-volume measurement apparatus manufactured by Ugo Basile, on the day just before the adjuvant shot (Day 0), Day 10 and Day 14, and repression rate (%) was calculated comparing the values between the sample group and the control group.

gastric mucosa = experiment: Disorder of gastric mucosa; assay type: in vivo, SD rats; settings: stomach, 1000 mg/kg orally, fasted rats, 6 hours after dosing
Method: Disorder of Gastric Mucosa
Male SD origin male-rats (7 weeks old, CLEA Japan) were used. After 24 hours from the termination of food supply, samples were orally administered (5 mL/kg, b.w.). After 5.5 hours, Evan's Blue (0.5% Evan's Blue/saline) was injected intravenously (1 mL/rat) under no anesthesia. After 30 minutes from the shot, the stomach (with esophagus and duodenum of 1.5 to 2 cm length) was removed by celiotomy, and subsequently, the esophagus terminal was closed with a clip, and a 8 mL of 1% formalin solution was injected into the stomach through the duodenum, which was also closed with a clip after the injection. The stomach was left contacting with the 1% formalin solution for more than 10 minutes, and subsequently cut open from duodenum along the greater curvature of stomach. The stomach was washed and spread on a filter paper, and the length of each of the spots dyed by Evan's Blue (hemorrhagic portion: mucosal ablation to ulcer) was measured under a stereomicroscope, and the total length (mm) was calculated by a counter and recorded.

[1] = test system: acetic acid induced rising and stretching; experiment: Analgesic activity, acetic acid rising method; assay type: in vivo, ICR-mice; settings: po, 20 min; 10 mg/kg orally, 30 minutes before 0.6% acetic acid i.p.; number of rising and stretching in 20 minutes; read-out: Repression rate (%) Dosage 10 mg/kg
Method: Analgesic Activity Acetic Acid Rising Method Male ICR-mice (5 weeks old, CLEA Japan) were used (1 group, n=10), and a sample was orally administered (0.2 mL/10 g, b.w.). After 30 minutes, 0.6% acetic acid solution was injected to mice intraperitoneally (0.1 mL/10 g, b.w.), and the mice were immediately transferred into an observation cage made of a transparent acrylic resin. The number of rising and stretching during the following period of 20 minutes was counted. The repression rate (%) was calculated by comparing the average numbers between the sample groups and the control groups.

[2] = test system: carrageenin edema of right hind limb plantar; experiment: Anti-inflammatory activity, carrageenin edema method; assay type: in vivo, SD-rats; settings: po, 10 mg/kg orally
Method: Anti-Inflammatory Activity
Male SD-rats (6 weeks old, CLEA Japan) were used (1 group, n=6). The Carrageenin edema method was performed according to the method of Winter et. al., (Proc. Soc. Exp. Biol. Med., vol. 111, p. 544-547, 1962). After the volume of right hind limb plantar of the rat was determined, a sample was orally administered (1.0 mL, b.w.), and immediately water was orally administered in an amount of 5 mL/rat. Meanwhile, only the solvent of the sample was orally administered to rats in control. After 1 hour, a solution of 1% carrageenin in saline (0.05 mL) was injected into the right hind limb plantar subcutaneously to induce edema. After 2 and 3 hours later from the injection, volumes of the right hind limb plantar were determined. The repression rate (%) of the sample was calculated by comparing the difference of the volumes of the plantar before the carrageenin shot and 2 and 3 hours after the shot between the sample groups and the control groups.

yeast-induced pyrexia = experiment: Antipyretic activity in yeast-induced pyrexia; assay type: in vivo, SD rats; settings: 10 mg/kg orally; maximum difference in body temperature vs control over 6 hours
Method: Antipyretic Activity in Yeast-Induced Pyrexia Antipyretic activity was determined using male SD origin male-rats (7 weeks old, CLEA Japan, 1 group: n=6), according to the method of winter et. al. (J. Pharmacol. Exp. Ther., vol. 138, p. 405, 1963). Before 16 hours from measurement of body temperature, a suspension of 15% yeast in saline was injected subcutaneously (10 mL/kg, b.w.) into the rats to induce fever, and simultaneously supply of food was terminated while water was made available all the time. Each of the rats was raised separately. After 16 hours from the yeast shot, a thermistor terminal was inserted at an about 4 cm depth into rectum every hour, and the body temperatures after 30 seconds were recorded. After 18 hours, rats developing fevers consistently were selected, and a sample was orally administered to the rats (5 mL/kg, b.w.), while to the control, only the solvent was administered. After the administration, body temperatures were measured every hour for a period of 6 hours, and the maximum difference in body temperature between the rats in the sample group and in the control group were determined as Δ (° C.).

human COX-2 = target: T1, human COX-2 (Homo sapiens, UniProt P35354); experiment: Determination of COX-2 inhibitory activity (microsome fraction, chemiluminescence); assay type: biochemical; settings: microsome fraction 20 μg, arachidonic acid, 37° C. 25 minutes preincubation; read-out: Repression rate IC50 (μM) COX-2
T1 construct: made in house; host or cells: Sf-21 insect cells (recombinant baculovirus BAC-COX2, pFASTBAC1); microsome fraction
T1 sequence (P35354 18-604): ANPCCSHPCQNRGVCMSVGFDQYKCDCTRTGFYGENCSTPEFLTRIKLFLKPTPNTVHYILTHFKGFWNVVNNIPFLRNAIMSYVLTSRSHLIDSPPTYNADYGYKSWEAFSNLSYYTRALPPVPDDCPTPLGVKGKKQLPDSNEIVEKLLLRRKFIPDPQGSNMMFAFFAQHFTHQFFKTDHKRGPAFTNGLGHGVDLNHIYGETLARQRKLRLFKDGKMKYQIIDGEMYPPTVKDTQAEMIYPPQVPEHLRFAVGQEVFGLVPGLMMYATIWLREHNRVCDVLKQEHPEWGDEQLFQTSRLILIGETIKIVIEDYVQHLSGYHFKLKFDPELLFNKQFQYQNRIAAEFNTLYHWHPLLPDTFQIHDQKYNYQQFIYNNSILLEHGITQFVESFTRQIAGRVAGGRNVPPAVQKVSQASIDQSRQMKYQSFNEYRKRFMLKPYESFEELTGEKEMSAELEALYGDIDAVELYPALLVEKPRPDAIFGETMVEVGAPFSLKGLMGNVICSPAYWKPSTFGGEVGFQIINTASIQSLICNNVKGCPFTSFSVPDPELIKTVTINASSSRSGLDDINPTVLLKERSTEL
Method: A 1.8 kb DNA fragment containing human COX-2 cDNA (Proc. Natl. Acad. Sci. U.S.A., vol. 89 (16), p. 7384-7388 (1992)) prepared by the PCR method was inserted into plasmid pFASTBAC1 (CIBCOBRAL) to obtain a plasmid pFBCOX2.
Using the plasmid pFBCOX2 and BAC-TO-BAC Baculovirus Expression System (GIBCOBRAL), a virus stock BAC-COX2 of the recombinant baculovirus was prepared.
Sf-21 cells were inoculated in 125 mL of LSf-900 II SFM medium (GIBCOBRAL) at a concentration of 1×10^6 cells/mL, and the medium was incubated at 27° C. for 24 hours. 0.75 mL of the virus stock BAC-COX2 of the recombinant baculovirus was added thereto, and was incubated further for 72 hours. The cells were separated from the medium by centrifugation (3000 rpm, 10 min), and washed with PBS twice. The cells were suspended in 10 mL of a Lysis buffer (0.1M Tris-HCl (pH 7.4), 5 mM EDTA), and were treated with a homogenizer (POLYTRON), three times at 20000 rpm for 20 seconds so that the cells were crushed. The supernatant thus obtained after centrifugation (2000 rpm, 10 minutes) was further centrifuged (40000 rpm, 45 minutes) to obtain a precipitate, which was resuspended in a Lysis buffer (0.1M Tris-HCl (pH 7.4), 5 mM EDTA), and the suspension was stored at −80° C.
(§1) Determination of COX-1 and COX-2 Inhibitory Activities
(§2) To a mixture of 20 μL of a reaction buffer previously concentrated 10 times (1M Tris-HCl (pH8.0), 50 mM EDTA, 1.0% Tween 20, 50 mM luminol, 100 μM hematin), 20 μL of the microsome fractions (COX-1: 40 μg, COX-2: 20 μg), and 55 μL of distilled water, a sample compound dissolved in DMF (5 μL) was added, and the mixture was left at 37° C. for 25 minutes. The reaction was started by the addition of 20 μM arachidonic acid (100 μL), and chemiluminescence amount during the 10-second period after the addition of arachidonic acid was determined by the use of Lumistar (BMG Lab technologies, GmbH). The inhibition rate was calculated, regarding that the enzyme activity when DMF ([…]) was added was 100%, and the enzyme activity when 4 mM flurbiprofen (5 μL) was added was 0%.

[3] = test system: mucosa of small intestine; experiment: Disorder of mucosa of small intestine; assay type: in vivo, SD rats; settings: 300 mg/kg orally, freely fed rats, 6 hours after dosing
Method: Disorder of Mucosa of Small Intestine Male SD origin male-rats (7 weeks old, CLEA Japan) were used. To the rats freely fed, samples were administered orally (5 mL/kg, b.w.). After 5.5 hours from the administration, Evan's Blue (0.5% Evan's Blue/saline) was injected (1 mL/rat) intravenously under no anesthesia. After 30 minutes from the shot, the intestine was removed by celiotomy and the area thereof facing mesentery was cut open. After removal of intestinal content, the spots in the intestine dyed by Evan's Blue were measured under a stereomicroscope, and the total length (mm) of the spots was determined by a counter and recorded.

human COX-1 = target: T2, human COX-1 (Homo sapiens, UniProt P23219); experiment: Determination of COX-1 inhibitory activity (microsome fraction, chemiluminescence); assay type: biochemical; settings: microsome fraction 40 μg, arachidonic acid, 37° C. 25 minutes preincubation; read-out: Repression rate IC50 (μM) COX-1
T2 construct: made in house; host or cells: Sf-21 insect cells (recombinant baculovirus BAC-COX1, pFASTBAC1); microsome fraction
T2 sequence (P23219 24-599): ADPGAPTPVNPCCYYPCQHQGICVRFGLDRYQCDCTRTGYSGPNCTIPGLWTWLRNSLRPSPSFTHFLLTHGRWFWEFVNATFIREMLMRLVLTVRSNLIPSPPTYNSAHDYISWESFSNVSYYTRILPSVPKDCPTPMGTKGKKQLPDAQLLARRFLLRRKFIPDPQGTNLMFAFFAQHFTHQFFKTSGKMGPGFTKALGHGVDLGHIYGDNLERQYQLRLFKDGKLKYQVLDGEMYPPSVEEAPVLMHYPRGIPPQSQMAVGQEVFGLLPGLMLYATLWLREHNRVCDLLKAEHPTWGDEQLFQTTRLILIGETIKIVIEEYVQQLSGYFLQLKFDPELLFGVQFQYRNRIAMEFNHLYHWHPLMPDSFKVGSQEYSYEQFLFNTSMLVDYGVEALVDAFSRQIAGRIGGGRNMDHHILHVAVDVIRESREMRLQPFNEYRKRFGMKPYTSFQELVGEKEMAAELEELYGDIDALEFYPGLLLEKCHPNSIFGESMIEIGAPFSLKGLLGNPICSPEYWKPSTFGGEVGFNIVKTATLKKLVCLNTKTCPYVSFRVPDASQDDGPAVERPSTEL
Method: A 1.8 kb DNA fragment containing human COX-1 cDNA (FASEB J., vol. 5 (9), p. 2304-2312 (1991)) prepared by the PCR method was inserted into plasmid pFASTBAC1 (CIBCOBRL) to obtain a plasmid pFBCOX1.
Using the plasmid pFBCOX1 and BAC-TO-BAC Baculovirus Expression System (GIBCOBRL), a virus stock BAC-COX1 of the recombinant baculovirus was prepared.
Sf-21 cells were inoculated in 125 mL of Sf-900 II SFM medium (GIBCOBRL) at a concentration of 1×10^6 cells/mL, and the medium was incubated at 27° C. for 24 hours. 0.75 mL of the virus stock BAC-COX1 of the recombinant baculovirus was added thereto, and the mixture was incubated further for 72 hours. The cells were separated from the medium by centrifugation (3000 rpm, 10 min), and washed with PBS twice. The cells were suspended in 10 mL of a Lysis buffer (0.1M Tris-HCl (pH 7.4), 5 mM EDTA), and were treated with a homogenizer (POLYTRON) three times at 20000 rpm for 20 seconds so that the cells were crushed. The supernatant obtained after centrifugation (2000 rpm, 10 minutes) was further centrifuged (40000 rpm, 45 minutes) to give a precipitate, which was resuspended in a Lysis buffer (0.1M Tris-HCl (pH 7.4), 5 mM EDTA), and the suspension was stored at −80° C.
as §1, §2

| Structure (SMILES) | Repression rate (%) Dosage 10 mg/kg (adjuvant arthritis) | Total length of dyed spots (mm) (gastric mucosa) | inhibition in vivo at 10 mg/kg [1] [%] | inhibition in vivo at 10 mg/kg ([2]; 2 hr after carrageenin injection, read-out: Repression rate (%) Dosage 10 mg/kg 2 hr later) [%] | inhibition in vivo at 10 mg/kg ([2]; 3 hr after carrageenin injection, read-out: Repression rate (%) Dosage 10 mg/kg 3 hr later) [%] | melting point [°C] | Δ (° C.) Dosage 10 mg/kg (yeast-induced pyrexia) | IC50 (human COX-2) [µM] | Total length of dyed spots (mm) [3] | IC50 (human COX-1) [µM] |
| --- | --- | --- | --- | --- | --- | --- | --- | --- | --- | --- |
| Cc1nn(-c2ccccn2)c2[nH]c3cc(F)c(F)cc3c(=O)c12 [Example 2-91, 6,7-Difluoro-3-methyl-1-(2-pyridinyl)-1,9-dihydro-4H-pyrazolo[3,4-b]quinolin-4-one] | 76** % | 0 (1000 mg/kg) mm | 65 | 51 | 42 | 274 to 277 | 1.5** ° C. |  |  |  |
| Cc1nn(-c2ccccn2)c2[nH]c3cc(F)c(F)cc3c(=O)c12.O [Example 2-92, 6,7-Difluoro-3-methyl-1-(2-pyridinyl)-1,9-dihydro-4H-pyrazolo[3,4-b]quinolin-4-one monohydrate] |  | 0 (1000 mg/kg) mm |  |  |  |  |  | 0.465 | 0 (300 mg/kg) mm | 0.677 |
